Reference: ChEMBL document CHEMBL1806354 (J Med Chem, 2011)
Active and inactive are the calls of the source. No cut-off for these calls is given here.

How the values were obtained:
Rattus norvegicus [1] = assay: Antiparkinsonian activity in 6-hydroxydopamine lesioned Sprague-Dawley rat assessed as contralateral rotations at 1.5 mg/kg, ip measured every 5 mins for 6 hrs pretreated with D2 receptor antagonist 2 mg/kg of spiperone for 15 mins before compound challenge; format: functional, organism-based
Rattus norvegicus [2] = assay: Antiparkinsonian activity in 6-hydroxydopamine lesioned Sprague-Dawley rat assessed as contralateral rotations at 1.5 mg/kg, ip measured every 5 mins for 6 hrs pretreated with 5-HT1A receptor antagonist 0.1 mg/kg of WAY-100635 for 10 mins before compound challenge; format: functional, organism-based
Rattus norvegicus [3] = assay: Antiparkinsonian effect in Parkinson's disease rat model of assessed as reduction in L-DOPA-induced dyskinesia at 0.5 to 1.5 mg/kg, ip qd for 21 days treated 15 mins before L-DOPA challenge measured on day 14, 17 and 23; format: functional, organism-based
Rattus norvegicus [4] = assay: Antiparkinsonian effect in 21 days L-DOPA treated Parkinson's disease rat model assessed as reduction in L-DOPA-induced dyskinesia at 0.5 to 1.5 mg/kg, ip administered 15 mins before L-DOPA challenge on day 23; format: functional, organism-based
Rattus norvegicus [5] = assay: Antiparkinsonian effect in Parkinson's disease rat model assessed as effect on contralateral rotations measured per 5 mins at 0.5 to 1.5 mg/kg, ip qd for 21 days; format: functional, organism-based
Rattus norvegicus [6] = assay: Agonist activity at 5HT1A receptor in lesioned striatum of rat L-DOPA-induced dyskinesia model assessed as stimulation of 8-OH-DPAT-induced [35S]GTPgammaS binding at 1.5 mg/kg administered qd for 21 days by liquid scintillation counting; format: functional, organism-based; parameters: dose 1.5 mg/kg
Rattus norvegicus [7] = assay: Antiparkinsonian effect in 6-hydroxydopamine lesioned Sprague-Dawley rat Parkinson's disease model assessed as inhibition of L-DOPA-enhanced FosB expression in striatum at 1.5 mg/kg administered qd for 21 days by Western blot analysis; format: functional, organism-based; parameters: dose 1.5 mg/kg
Rattus norvegicus [8] = assay: Antiparkinsonian effect in 6-hydroxydopamine lesioned Sprague-Dawley rat Parkinson's disease model assessed as induction of FosB expression in striatum at 1.5 mg/kg administered qd for 21 days by Western blot analysis; format: functional, organism-based; parameters: dose 1.5 mg/kg
[9] = biological target: T1, 5-hydroxytryptamine receptor 1A (Rattus norvegicus) (UniProt P19327); assay: Decrease of 5HT1A receptor-mediated excitatory postsynaptic current amplitude in Sprague-Dawley rat median prefrontal cortex at 10 uM by whole-cell voltage clamp assay; format: tissue-based; parameters: scale not given: the % may be the effect or the level left
T1 sequence (whole entry): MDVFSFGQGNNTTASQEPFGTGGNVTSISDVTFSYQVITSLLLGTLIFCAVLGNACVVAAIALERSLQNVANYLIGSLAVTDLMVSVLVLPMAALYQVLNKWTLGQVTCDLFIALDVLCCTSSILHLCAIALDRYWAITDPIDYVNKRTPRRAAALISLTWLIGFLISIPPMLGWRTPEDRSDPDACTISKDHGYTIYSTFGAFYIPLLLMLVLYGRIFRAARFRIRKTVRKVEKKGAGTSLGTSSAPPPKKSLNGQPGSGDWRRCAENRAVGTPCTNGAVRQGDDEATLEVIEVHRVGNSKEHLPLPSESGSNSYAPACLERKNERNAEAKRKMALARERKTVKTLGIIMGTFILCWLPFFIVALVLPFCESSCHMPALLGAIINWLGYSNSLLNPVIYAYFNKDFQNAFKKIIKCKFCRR

Rattus norvegicus [10] = assay: Toxicity in Parkinson's disease rat model of assessed as induction of dyskinesia at 0.5 to 1.5 mg/kg, ip qd for 21 days; format: organism-based; parameters: dose 0.5-1.5 mg/kg, route intraperitoneal; conditions: in vivo, 504 h
D(1A) dopamine receptor = D(1A) dopamine receptor (Homo sapiens, UniProt P21728); assay: Displacement of [3H]SCH23390 from dopamine D1 receptor expressed in HEK293 cells at 10 uM after 50 mins by beta liquid scintillation counter; format: cell-based
[11] = biological target: T2, 5-hydroxytryptamine receptor 1A (Homo sapiens, UniProt P08908); assay: Displacement of [3H]-8-OH-DPAT from 5-HT1A receptor expressed in CHO cells after 50 mins by beta liquid scintillation counter; format: cell-based
T2 sequence (P08908 whole entry): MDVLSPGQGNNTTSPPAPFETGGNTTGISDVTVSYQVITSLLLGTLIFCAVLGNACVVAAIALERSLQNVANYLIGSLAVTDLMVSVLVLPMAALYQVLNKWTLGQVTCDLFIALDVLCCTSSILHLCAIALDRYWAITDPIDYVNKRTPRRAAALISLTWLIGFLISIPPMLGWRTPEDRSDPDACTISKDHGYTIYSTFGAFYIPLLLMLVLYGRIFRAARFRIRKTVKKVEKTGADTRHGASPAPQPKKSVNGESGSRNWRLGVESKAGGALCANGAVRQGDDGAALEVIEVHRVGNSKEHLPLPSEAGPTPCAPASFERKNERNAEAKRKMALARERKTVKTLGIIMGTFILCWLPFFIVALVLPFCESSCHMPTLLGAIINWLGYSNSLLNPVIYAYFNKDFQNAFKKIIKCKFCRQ

[12] = biological target: 5-hydroxytryptamine receptor 2A (Homo sapiens, UniProt P28223); assay: Displacement of [3H]ketanserin from 5-HT2A receptor expressed in CHO cells at 10 uM after 50 mins by beta liquid scintillation counter; format: cell-based
D(2) dopamine receptor = D(2) dopamine receptor (Homo sapiens, UniProt P14416); assay: Agonist activity at dopamine D2 receptor expressed in HEK293 cells assessed as stimulation of [35S]GTPgammaS binding after 30 mins; format: functional, cell-based
[13] = biological target: T2, 5-hydroxytryptamine receptor 1A; assay: Agonist activity at 5-HT1A receptor expressed in CHO cells assessed as stimulation of [35S]GTPgammaS binding after 30 mins; format: functional, cell-based
[14] = biological target: T3, Alpha-1A adrenergic receptor (Homo sapiens, UniProt P35348); assay: Antagonist activity at adrenergic alpha1A receptor expressed in CHO cells assessed as inhibition of adrenaline-induced intracellular calcium level after 3 to 5 mins by Fluo-4/AM assay; format: functional, cell-based
T3 sequence (P35348 whole entry): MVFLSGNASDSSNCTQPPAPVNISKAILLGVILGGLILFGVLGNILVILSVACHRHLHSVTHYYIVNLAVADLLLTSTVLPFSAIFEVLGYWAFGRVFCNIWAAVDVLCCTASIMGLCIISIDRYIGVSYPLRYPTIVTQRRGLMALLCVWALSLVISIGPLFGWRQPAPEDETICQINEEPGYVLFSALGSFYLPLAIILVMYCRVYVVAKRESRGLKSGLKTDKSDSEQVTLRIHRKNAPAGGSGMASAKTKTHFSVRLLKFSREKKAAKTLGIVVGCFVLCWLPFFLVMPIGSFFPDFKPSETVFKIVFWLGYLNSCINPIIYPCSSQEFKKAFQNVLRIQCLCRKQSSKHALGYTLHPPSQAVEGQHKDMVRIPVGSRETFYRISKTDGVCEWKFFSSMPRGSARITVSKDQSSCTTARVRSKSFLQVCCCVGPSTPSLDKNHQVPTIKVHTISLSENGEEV

[15] = biological target: Beta-2 adrenergic receptor (Homo sapiens, UniProt P07550); assay: Antagonist activity at adrenergic beta2 receptor expressed in HEK293 cells co-transfected with Galpha16 assessed as inhibition of adrenaline-induced intracellular calcium after 3 to 5 mins by Fluo-4/AM assay; format: functional, cell-based
Rattus norvegicus [16] = assay: Antiparkinsonian activity in 6-hydroxydopamine lesioned Sprague-Dawley rat assessed as contralateral rotations at 0.5 to 1.5 mg/kg, ip measured every 5 mins for 6 hrs; format: functional, organism-based

Chain of 5-hydroxytryptamine receptor 2A (P28223 whole entry): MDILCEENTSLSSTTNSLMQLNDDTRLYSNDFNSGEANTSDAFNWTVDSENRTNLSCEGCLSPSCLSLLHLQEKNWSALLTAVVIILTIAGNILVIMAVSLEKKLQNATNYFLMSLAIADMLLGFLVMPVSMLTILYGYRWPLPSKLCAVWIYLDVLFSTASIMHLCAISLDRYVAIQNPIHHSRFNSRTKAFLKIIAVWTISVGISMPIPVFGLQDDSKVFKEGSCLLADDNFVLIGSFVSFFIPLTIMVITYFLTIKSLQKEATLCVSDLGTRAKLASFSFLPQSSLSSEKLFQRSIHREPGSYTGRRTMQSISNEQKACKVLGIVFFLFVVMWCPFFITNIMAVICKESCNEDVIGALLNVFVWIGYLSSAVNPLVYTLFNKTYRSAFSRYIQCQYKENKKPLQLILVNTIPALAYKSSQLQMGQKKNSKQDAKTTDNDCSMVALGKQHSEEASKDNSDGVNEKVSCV
Chain of D(2) dopamine receptor (P14416 whole entry): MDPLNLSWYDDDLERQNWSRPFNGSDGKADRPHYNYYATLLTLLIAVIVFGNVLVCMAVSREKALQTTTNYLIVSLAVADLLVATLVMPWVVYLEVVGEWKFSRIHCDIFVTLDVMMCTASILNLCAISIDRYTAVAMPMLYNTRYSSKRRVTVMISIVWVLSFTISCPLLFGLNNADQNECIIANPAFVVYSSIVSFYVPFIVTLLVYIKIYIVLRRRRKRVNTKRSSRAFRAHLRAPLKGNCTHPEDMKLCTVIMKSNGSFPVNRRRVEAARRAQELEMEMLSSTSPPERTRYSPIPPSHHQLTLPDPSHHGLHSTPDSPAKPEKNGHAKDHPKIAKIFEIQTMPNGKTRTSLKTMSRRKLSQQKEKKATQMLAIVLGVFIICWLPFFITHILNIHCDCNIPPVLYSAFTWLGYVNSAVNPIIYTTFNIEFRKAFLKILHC
Chain of D(1A) dopamine receptor (P21728 whole entry): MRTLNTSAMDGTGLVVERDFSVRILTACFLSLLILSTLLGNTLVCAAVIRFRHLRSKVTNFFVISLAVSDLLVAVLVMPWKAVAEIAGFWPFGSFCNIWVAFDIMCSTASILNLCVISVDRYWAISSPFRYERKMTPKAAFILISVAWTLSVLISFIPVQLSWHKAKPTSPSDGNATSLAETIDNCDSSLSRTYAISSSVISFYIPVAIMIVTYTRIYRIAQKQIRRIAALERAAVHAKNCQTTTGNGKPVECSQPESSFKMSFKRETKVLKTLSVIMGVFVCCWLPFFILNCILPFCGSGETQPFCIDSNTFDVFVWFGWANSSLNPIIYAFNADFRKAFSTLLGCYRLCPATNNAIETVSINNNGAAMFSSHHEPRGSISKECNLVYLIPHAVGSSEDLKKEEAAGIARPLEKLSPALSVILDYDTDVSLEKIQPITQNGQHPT
Chain of Beta-2 adrenergic receptor (P07550 whole entry): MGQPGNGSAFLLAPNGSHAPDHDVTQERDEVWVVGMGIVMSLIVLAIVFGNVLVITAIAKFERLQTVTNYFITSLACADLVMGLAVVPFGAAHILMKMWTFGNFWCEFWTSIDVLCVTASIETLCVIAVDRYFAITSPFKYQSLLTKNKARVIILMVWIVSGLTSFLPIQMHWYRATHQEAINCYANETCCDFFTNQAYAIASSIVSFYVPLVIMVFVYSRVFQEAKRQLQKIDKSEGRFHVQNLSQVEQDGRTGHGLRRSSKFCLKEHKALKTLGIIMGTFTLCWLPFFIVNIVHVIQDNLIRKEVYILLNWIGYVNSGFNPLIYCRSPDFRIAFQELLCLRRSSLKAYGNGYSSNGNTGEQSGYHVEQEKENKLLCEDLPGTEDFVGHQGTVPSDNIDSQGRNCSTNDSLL

Activity [9]: 63.8%
inhibition (D(1A) dopamine receptor): 55.7%
Ki [11]: 66 nM
inhibition [12]: 48%
EC50 (D(2) dopamine receptor): 320 nM
EC50 [13]: 190 nM
IC50 [14]: > 10000 nM
IC50 [15]: > 10000 nM
Structure (SMILES): CCCN1CCc2cccc3c2[C@H]1Cc1cccc(OC(=O)CCCCC2CCSS2)c1-3 (stereo partly drawn)
Activity (Rattus norvegicus [1]): inactive
Activity (Rattus norvegicus [2]): Active
Activity (Rattus norvegicus [3]): Active
Activity (Rattus norvegicus [4]): inactive
Activity (Rattus norvegicus [5]): Active
Activity (Rattus norvegicus [6]): Active
Activity (Rattus norvegicus [7]): Active
Activity (Rattus norvegicus [8]): inactive
Activity (Rattus norvegicus [10]): Non-toxic
Activity (Rattus norvegicus [16]): Active
